The values below come from US11161864B2, “Sting agonists” (Venenum Biodesign, LLC, priority 2018, dated 2021).

For assay [1], the target named is AQ variant of truncated human STING protein, amino acids 155-379 (Homo sapiens (Human), UniProt Q86WV6, G230A/H232R/R293Q). Nature of the assay: Human AQ STING [3H] 2′,3′-cGAMP scintillation proximity competition binding assay. The settings on record: read-out: Human AQ Binding IC50. The text has this:
(§1) A human STING [^3H] 2′,3′-cGAMP scintillation proximity competition binding assay was utilized to detect binding of compounds to STING protein. […] The protein encoding plasmid contained a HIS tag, followed by an Avi tag and then a SUMO tag, which were followed by the STING coding sequence within the pET-28a (+) vector. The plasmid was transfected into a BL21 (DE3)/BirA E. coli co-expression strain. Protein was purified from the bacterial lysate using a cobalt-affinity column. The purified protein was dialyzed against PBS and then 20% glycerol was added prior to storage at −80° C.
(§2) 2′,3′-cGAMP in assay buffer (50 mM Tris pH 7.5, 100 mM NaCl, 0.1% Fatty Acid Free BSA). Test compounds (2.5 μL) were added to the plate first followed by a 25 μL mixture of STING protein, streptavidin PVT SPA beads (Perkin Elmer) and 10 μL [^3H] 2′,3′-cGAMP. Plates were incubated at room temperature for 18 hrs and read on a Wallac MicroBeta TriLux (Perkin Elmer).

Assay [2] concerns the target wild-type (WT) truncated human STING protein, amino acids 155-379 (Homo sapiens (Human), UniProt Q86WV6, H232R). Nature of the assay: Human WT STING [3H] 2′,3′-cGAMP scintillation proximity competition binding assay. The settings on record: read-out: Human WT Binding IC50.
From the text: as §1, §2

Assay [3] addresses murine STING protein (amino acids 154-378) (Mus musculus (Mouse), UniProt Q3TBT3). Kind of assay: Murine STING [3H] 2′,3′-cGAMP scintillation proximity competition binding assay. The settings on record: read-out: Murine Binding IC50.

SMILES strings stand for the structures. pIC50: −log10 of the molar value.

murine STING protein (amino acids 154-378), sequence (Q3TBT3 154-378): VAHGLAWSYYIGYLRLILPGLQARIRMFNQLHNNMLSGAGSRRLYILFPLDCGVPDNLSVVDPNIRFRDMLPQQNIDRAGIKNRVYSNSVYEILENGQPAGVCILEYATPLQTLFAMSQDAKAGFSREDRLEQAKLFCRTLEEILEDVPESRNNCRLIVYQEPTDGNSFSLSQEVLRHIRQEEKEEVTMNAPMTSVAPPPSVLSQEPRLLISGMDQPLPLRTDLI
wild-type (WT) truncated human STING protein, amino acids 155-379, sequence (Q86WV6 155-379 H232R): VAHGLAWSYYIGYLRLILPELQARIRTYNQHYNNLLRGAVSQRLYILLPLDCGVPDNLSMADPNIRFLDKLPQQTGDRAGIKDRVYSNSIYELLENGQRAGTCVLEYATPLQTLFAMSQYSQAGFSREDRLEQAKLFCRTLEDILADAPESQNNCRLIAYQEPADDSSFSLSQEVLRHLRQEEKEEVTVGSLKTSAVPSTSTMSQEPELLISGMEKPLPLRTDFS
AQ variant of truncated human STING protein, amino acids 155-379, sequence (Q86WV6 155-379 G230A/H232R/R293Q): as the sequence (Q86WV6 155-379 H232R) above, with G76A, R139Q counted along it

`Nc1nc2c(ncn2[C@@H]2O[C@@H]3COP(=O)(O)OCCCn4c(nc5cncnc54)COP(=O)(O)O[C@@H]2[C@@H]3O)c(=O)[nH]1` [Example 2, (1R,22R,24R,25R)-24-(2-Amino-6-oxo-6,9-dihydro-1H-purin-9-yl)-3,19,25-trihydroxy-2,4,18,20,23-pentaoxa-710,122,14-tetraaza-3lambda5,19lambda5-diphosphatetracyclo[20.2.1.06,14.08,13]pentacosa-6,8(13),9,11-tetraene-3,19-dione]: the pIC50 in assay [1] and in assay [2] was 4.00 to 5.00 each time.

With `Nc1nc2c(ncn2[C@@H]2O[C@@H]3COP(=O)(S)OCCn4nc(-c5ccncc5)nc4COP(=O)(S)O[C@@H]2[C@@H]3F)c(=O)[nH]1` (single isomer, unassigned) [Example 34D], the pIC50 in assay [3] is 5.00 to 6.00.

For `C[C@H]1COP(=O)(S)OC[C@H]2O[C@@H](n3cnc4c(=O)[nH]c(N)nc43)[C@H](OP(=O)(S)OCc3nc4cncnc4n31)[C@@H]2F` (single isomer, unassigned) [Example 20D], the pIC50 in assay [3] was 4.00 to 5.00.

For the compound `Nc1nc2c(ncn2[C@@H]2O[C@@H]3COP(=O)(S)OCCn4c(nc5cncnc54)COP(=O)(S)O[C@@H]2[C@@H]3F)c(=O)[nH]1` (single isomer, unassigned) [Example 1A], in assay [1], the pIC50 is above 6.00.

Take `Nc1nc2ncn([C@@H]3O[C@@H]4COP(=O)(S)OCCn5c(nc6cc(Cl)cnc65)COP(=O)(S)O[C@@H]3[C@@H]4F)c2c(=O)[nH]1` (single isomer, unassigned) [Example 13A]: the negative logarithm of the IC50 (pIC50) in assay [3] was above 6.00.

Regarding `Nc1nc2c(ncn2[C@@H]2O[C@@H]3COP(=S)(S)OCCn4c(nc5cncnc54)COP(=O)(S)O[C@@H]2[C@@H]3F)c(=O)[nH]1` (stereo partly drawn) [Example 39, (1S,21R,23R,24R)-23-(2-Amino-6-oxo-6,9-dihydro-1H-purin-9-yl)-24-fluoro-3,18-disulfanyl-18-sulfanylidene-2,4,17,19,22-pentaoxa-7,10,12,14-tetraaza-3lambda5,18lambda5-diphosphatetracyclo[19.2.1.06,14.08,13]tetracosa-6,8(13),9,11-tetraen-3-one], in assay [3], the pIC50 is above 6.00.

For the compound `Nc1nc2c(ncn2[C@@H]2O[C@@H]3COP(=O)(S)OCCn4nc(-c5ccncc5)nc4COP(=O)(S)O[C@@H]2[C@@H]3F)c(=O)[nH]1` (single isomer, unassigned) [Example 34B], in assay [3], the pIC50 was 5.00 to 6.00.

Turning to `Nc1nc2c(ncn2[C@@H]2O[C@@H]3COP(=O)(S)OCCn4c(nc5cnccc54)COP(=O)(S)O[C@@H]2[C@@H]3F)c(=O)[nH]1` (single isomer, unassigned) [Example 17C], in assay [3], the pIC50 is above 6.00.

Turning to `Nc1nc2c(ncn2[C@@H]2O[C@@H]3COP(=O)(S)OCCn4c(nc5cncnc54)COP(=O)(S)O[C@@H]2[C@@H]3O)c(=O)[nH]1` (single isomer, unassigned) [Example 15C], the pIC50 in assay [3] is above 6.00.

Turning to `Nc1nc2c(ncn2[C@@H]2O[C@@H]3COP(=O)(S)OCCn4c(nc5cnc(C6CC6)nc54)COP(=O)(S)O[C@@H]2[C@@H]3F)c(=O)[nH]1` (single isomer, unassigned) [Example 12D], the pIC50 in assay [3] is 5.00 to 6.00.

As for `Nc1nc2c(ncn2[C@@H]2O[C@@H]3COP(=O)(S)OCCn4c(nc5cc(Cl)cnc54)COP(=O)(S)O[C@@H]2[C@@H]3F)c(=O)[nH]1` (single isomer, unassigned) [Example 14C], the negative logarithm of the IC50 (pIC50) in assay [3] is above 6.00.

Regarding `Nc1nc2c(nnn2[C@@H]2O[C@@H]3COP(=O)(S)OCCn4c(nc5cncnc54)COP(=O)(S)O[C@@H]2[C@@H]3F)c(=O)[nH]1` (single isomer, unassigned) [Example 24B], the pIC50 in assay [3] was 4.00 to 5.00.

In the case of `Nc1nc2c(ncn2[C@@H]2O[C@@H]3COP(=O)(O)OCCn4c(nc5cncnc54)COP(=O)(S)O[C@@H]2[C@@H]3F)c(=O)[nH]1` (single isomer, unassigned) [Example 5A], the pIC50 in assay [3] was above 6.00.

As for `Nc1nc2c(ncn2[C@@H]2O[C@@H]3COP(=O)(S)OCCn4nc(-c5ccncc5)nc4COP(=O)(S)O[C@@H]2[C@@H]3F)c(=O)[nH]1` (single isomer, unassigned) [Example 34C], the negative-log IC50 (pIC50) in assay [3] was above 6.00.

Take `Nc1nc2c(ncn2[C@@H]2O[C@@H]3COP(=O)(S)OCCn4c(nc5cncnc54)COP(=O)(S)O[C@@H]2[C@H]3F)c(=O)[nH]1` (single isomer, unassigned) [Example 25B]: the pIC50 in assay [2] is 4.00 to 5.00.

For `Nc1nc2c(ncn2[C@@H]2O[C@@H]3COP(=O)(S)OCCn4nc(-c5cncs5)nc4COP(=O)(S)O[C@@H]2[C@@H]3F)c(=O)[nH]1` (single isomer, unassigned) [Example 16C], the pIC50 in assay [3] was above 6.00.

With `Nc1nc2c(ncn2[C@@H]2O[C@@H]3COP(=O)(S)OCCn4c(nc5cncnc54)COP(=O)(S)O[C@@H]2[C@@H]3O)c(=O)[nH]1` (single isomer, unassigned) [Example 15D], in assay [3], the pIC50 was above 6.00.

On to `Nc1nc2c(ncn2[C@@H]2O[C@@H]3COP(=O)(S)OCCn4c(nc5c(=O)[nH]cnc54)COP(=O)(S)O[C@@H]2[C@@H]3F)c(=O)[nH]1` (single isomer, unassigned) [Example 3D], for which the pIC50 in assay [3] is 5.00 to 6.00.

With `Nc1nc2c(ncn2[C@@H]2O[C@@H]3COP(=O)(S)OCCn4c(nc5c(=O)[nH]cnc54)COP(=O)(S)O[C@@H]2[C@@H]3F)c(=O)[nH]1` (single isomer, unassigned) [Example 3B], in assay [3], the pIC50 is 5.00 to 6.00.

Regarding `Nc1nc2c(nnn2[C@@H]2O[C@@H]3COP(=O)(S)OCCn4c(nc5cncnc54)COP(=O)(S)O[C@@H]2[C@@H]3F)c(=O)[nH]1` (single isomer, unassigned) [Example 24C], the pIC50 in assay [3] is above 6.00.

With `Nc1nc2c(ncn2[C@@H]2O[C@@H]3COP(=O)(S)OCCn4c(nc5cncnc54)COP(=O)(O)O[C@@H]2[C@@H]3F)c(=O)[nH]1` (single isomer, unassigned) [Example 6B], in assay [3], the pIC50 is above 6.00.

`Nc1nc2c(nnn2[C@@H]2O[C@@H]3COP(=O)(S)OCCn4c(nc5cncnc54)COP(=O)(S)O[C@@H]2[C@@H]3F)c(=O)[nH]1` (single isomer, unassigned) [Example 24D]: the pIC50 in assay [3] is above 6.00.

For the compound `C[C@H]1Cn2c(nc3cncnc32)COP(=O)(S)O[C@@H]2[C@H](F)[C@@H](COP(=O)(S)O1)O[C@H]2n1cnc2c(=O)[nH]c(N)nc21` (single isomer, unassigned) [Example 33C], the pIC50 in assay [2] was 4.00 to 5.00.

In the case of `Nc1nc2c(nnn2[C@@H]2O[C@@H]3COP(=O)(S)OCCn4c(nc5cncnc54)COP(=O)(S)O[C@@H]2[C@@H]3F)c(=O)[nH]1` (single isomer, unassigned) [Example 24A], in assay [3], the pIC50 was above 6.00.

Turning to `Nc1nc2c(ncn2[C@@H]2O[C@@H]3COP(=O)(O)OCCn4c(nc5cncnc54)COP(=O)(S)O[C@@H]2[C@@H]3F)c(=O)[nH]1` (single isomer, unassigned) [Example 5B], in assay [3], the negative logarithm of the IC50 (pIC50) is 5.00 to 6.00.

For the compound `Nc1nc2c(ncn2[C@@H]2O[C@@H]3COP(=O)(S)OCCn4nc(-c5cncs5)nc4COP(=O)(S)O[C@@H]2[C@@H]3F)c(=O)[nH]1` (single isomer, unassigned) [Example 16D], the pIC50 in assay [3] is above 6.00.

`Nc1nc2c(nc3n2CCOP(=O)(S)OC[C@H]2O[C@@H](n4cnc5c(N)ncnc54)[C@H](OP(=O)(S)OC3)[C@@H]2F)c(=O)[nH]1` (single isomer, unassigned) [Example 23D]: in assay [3], the negative-log IC50 (pIC50) was 4.00 to 5.00.

As for `Nc1nc2c(ncn2[C@@H]2O[C@@H]3COP(=O)(S)OCCn4c(nc5cncnc54)COP(=O)(O)O[C@@H]2[C@@H]3F)c(=O)[nH]1` (single isomer, unassigned) [Example 6A], the pIC50 in assay [3] was above 6.00.

`Nc1nc2c(ncn2[C@@H]2O[C@@H]3COP(=O)(S)OCCn4c(nc5cnc(C6CC6)nc54)COP(=O)(S)O[C@@H]2[C@@H]3F)c(=O)[nH]1` (single isomer, unassigned) [Example 12C]: in assay [3], the pIC50 is above 6.00.

With `Nc1nc2c(ncn2[C@@H]2O[C@@H]3COP(=O)(S)OCCn4c(nc5cncnc54)COP(=O)(S)O[C@@H]2[C@@H]3O)c(=O)[nH]1` (mixture of isomers) [Example 15A, (1R,21R,23R,24R)-23-(2-Amino-6-oxo-6,9-dihydro-1H-purin-9-yl)-24-hydroxy-3,18-disulfanyl-2,4,17,19,22-pentaoxa-7,10,12,14-tetraaza-3lambda5,18lambda5-diphosphatetracyclo[19.2.1.06,14.08,13]tetracosa-6,8,10,12-tetraene-3,18-dione], in assay [3], the pIC50 was above 6.00.

On to `Nc1nc2c(ncn2[C@@H]2O[C@@H]3COP(=O)(S)OCCn4c(nc5cc(Cl)cnc54)COP(=O)(S)O[C@@H]2[C@@H]3F)c(=O)[nH]1` (single isomer, unassigned) [Example 14D], for which the pIC50 in assay [3] was above 6.00.

Regarding `Nc1nc2c(ncn2[C@@H]2O[C@@H]3COP(=O)(S)OCCn4c(nc5cc(Cl)cnc54)COP(=O)(S)O[C@@H]2[C@@H]3F)c(=O)[nH]1` (single isomer, unassigned) [Example 14A], the negative-log IC50 (pIC50) in assay [3] is above 6.00.

Regarding `Nc1nc2c(ncn2[C@@H]2O[C@@H]3COP(=O)(S)OCCn4c(nc5c(=O)[nH]cnc54)COP(=O)(S)O[C@@H]2[C@@H]3F)c(=O)[nH]1` (single isomer, unassigned) [Example 3C], in assay [3], the pIC50 was above 6.00.

For `Nc1nc2c(ncn2[C@@H]2O[C@@H]3COP(=O)(S)OCCn4nc(-c5cncs5)nc4COP(=O)(S)O[C@@H]2[C@@H]3F)c(=O)[nH]1` (single isomer, unassigned) [Example 16A], the pIC50 in assay [3] is above 6.00.
